Test results published in patent US4452817A, “Anaesthetic compositions containing 2,6-diisopropylphenol” (Imperial Chemical Industries PLC, priority 1974, dated 1984).

Experiments:
[1] = HD50 (anaesthesia, loss of righting reflex) and LD50 in mice, intravenous; details: mouse, in vivo; for LD50: mice
Procedure: (§1) Each mouse is various groups of 10 mice is injected intravenously with a 1% sterile solution of 2,6-diisopropylphenol as described in Example 14, the total dose administered being the same within any group but differing between groups.

mice [2] = assay: as above; details: Mus musculus, read-out: HD50 (dose required to cause anaesthesia, loss of righting reflex for at least 30 seconds, in 5 out of 10 mice)
Procedure: as §1

mice [3] = assay: Mean sleeping time of mice after twice the HD50, intravenous; type: in vivo, mouse; details: for 2,6-diisopropylphenol 27 mg./kg., standard deviation ±0.59 minutes
Procedure: Each of 10 mice is injected intravenously with 27 mg./kg. bodyweight (twice the HD50) of 2,6-diisopropylphenol as a 1% sterile solution described in Example 14.

[4] = system: mice, rats, rabbits, cats, rhesus or pigtail monkeys, pigs, sheep, horses, or cattle; assay: Intravenous anaesthesia in various animal species; type: in vivo
Procedure: Anaesthesia is produced in less than 1 minute and lasts, depending upon the species and the dose, from 3 to 25 minutes. […] The compound may also be administered intramuscularly.

pigtail monkey = details: 2% solution
Procedure: A 2% sterile solution of 2,6-diisopropylphenol prepared as described in Example 14 is administered intravenously to a pigtail monkey weighing 6.8 kg. at a rate of 0.05 mg. of phenol/kg. bodyweight/second until a dose of 34 mg. (5 mg./kg. bodyweight) of the phenol has been injected.

cat [5] = details: 10 mg./kg. i.v. plus four supplementary i.v. injections each of 2.0 mg./kg.
Text: A cat weighing 2.5 kg. is anaesthetised exactly as described in Example 17.

cat [6] = details: 10 mg./kg. i.v., topical anaesthetic applied to the larynx
Text: A cat is anaesthetised exactly as described in Example 17. […] Anaesthesia is thereafter maintained with an inhalation anaesthetic delivered through an Ayre's T-piece circuit.

cat [7] = assay: Intramuscular anaesthesia in a cat (Example 20); type: in vivo; details: 35 mg./kg. intramuscularly
Procedure: Righting reflexes are lost after 15 minutes, after a further 25 minutes anaesthesia has deepened sufficiently to allow intubation to be carried out. Muscle tone returns after a further 60 minutes and thereafter recovery is uneventful.

cat [8] = details: 5 cats, 2% solution
[9] = LD50 (dose required to kill 5 out of 10 mice), intravenous, 2,6-diisopropylphenol as 1% sterile solution of Example 14
[10] = intravenous, single dose of between 2.5 and 10 mg. per kg. bodyweight

Question: Which selectivity ratio [1] does the source give for `CCCC(C)C1(CC)C(=O)NC(=S)NC1=O` (centres unmarked) [thiopentone sodium, reference compound] here?
Answer: 4.26

Question: What about the LD50 [1, 9] of the same compound?
Answer: 100 mg/kg

Question: And the ED50 (mice [2])?
Answer: 23.5 mg/kg

Question: What about the “Mean sleeping time after twice the HD50” value (mice [3]) of the same compound?
Answer: 5.97 ± 1.63 min

Question: What does the source list for `CC(C)c1cccc(C(C)C)c1O` [2,6-diisopropylphenol]?
Answer: selectivity ratio [1]: 4.14; LD50 [1, 9]: 56 mg/kg; LD50 ([1]; LD50 dose in mice (general description)): 65 mg/kg; ED50 (mice [2]): 13.5 mg/kg; Mean sleeping time after twice the HD50 (mice [3]): 4.29 min; Quality of recovery ([4]; all animals, intravenous, 2.5 to 10 mg. per kg.): normal and rapid; Adverse side-effects ([4]; at anaesthetic doses): no adverse side-effects are noted; Quality of anaesthesia produced [4, 10]: smooth and rapid anaesthesia; Time in which anaesthesia is produced [4, 10]: less than 1 minute; Induction of anaesthesia (pigtail monkey; 5 mg./kg. i.v. at 0.05 mg./kg./second): smooth and rapid; Duration of anaesthesia (pigtail monkey; 5 mg./kg. i.v.): approximately 6 minutes; Muscle relaxation (pigtail monkey; 5 mg./kg. i.v.): muscle relaxation is produced; Quality of recovery (pigtail monkey; 5 mg./kg. i.v.): rapid; Spinal reflexes (pigtail monkey; 5 mg./kg. i.v.): spinal reflexes are depressed; Time after induction at which recovery is almost complete (pigtail monkey; 5 mg./kg. i.v.): 16 min; Quality of recovery after the operation (cat [5]): rapid; Time after completion of the operation until cat is able to stand (cat [5]): 35 min; Maintenance of anaesthesia during 45 minute laparotomy (cat [5]; 2% solution): anaesthesia is maintained during that time; Depth of anaesthesia (cat [6]): sufficient depth to allow intubation of the trachea; Further time (after intubation depth) until muscle tone returns (cat [7]; 2% solution): 60 min; Further time after loss of righting reflexes until anaesthesia is deep enough for intubation (cat [7]; 2% solution): 25 min; Quality of recovery (cat [7]; 2% solution): uneventful; Time to loss of righting reflexes (cat [7]; 2% solution): 15 min; Pain or lesion at the site of injection (cat [7]; during the subsequent 7 days): No pain or lesion at the site of injection is observed; Induction of anaesthesia (cat [8]; 10 mg./kg. i.v. at 0.05 mg./kg./second): rapid and free from excitment; Muscle relaxation (cat [8]; 10 mg./kg. i.v.): muscle relaxation is produced; Quality of further recovery (cat [8]; 10 mg./kg. i.v.): smooth and rapid; Spinal reflexes (cat [8]; 10 mg./kg. i.v.): spinal reflexes are depressed; Time to return of response to painful stimulation (cat [8]; 10 mg./kg. i.v.): approximately 10 minutes; Mean time from induction to reappearance of righting reflexes (cat [8]; 10 mg./kg. i.v., standard deviation ±7.35 minutes): 34 min; Mean time after induction until cat is able to stand again (cat [8]; 10 mg./kg. i.v., ±10.29 minutes): 42.6 min
